Experimental data taken from patent US9855273B2, “Combination therapy for MDS” (priority 2013, dated 2018).

Legend:
[1] = molecular target: IRAK4 (Homo sapiens, UniProt Q9NWZ3); conditions: read-out: IC50 IRAK4; Powers et al., 2006; cited from earlier work
[2] = molecular target: Lck (Homo sapiens, UniProt P06239); conditions: read-out: IC50 Lck; Powers et al., 2006; cited from earlier work
[3] = system: MDSL cells; assay: Cell cycle analysis by BrdU/7AAD; format: cell-based, human; conditions: 10 μM, up to 6 days
Procedure: MDS/AML cell lines with hyperphosphorylated IRAK1 (FIG. 1D) were evaluated for sensitivity to IRAK-Inh. MDS/AML cell lines exposed to increasing concentration of IRAK-Inh were cultured for up to 6 days in vitro (FIG. 3A). […] In support of this observation, the inhibitory effect of IRAK-Inh on the cell lines correlated with the level of phosphorylated IRAK1 (R2=0.36; FIG. 3B). In parallel, cell viability was examined after 48 hrs of treatment with the IRAK-Inh. […] To investigate whether IRAK-Inh affects cell cycle progression, MDSL cells were treated with 10 μM IRAK-Inh for up to 6 days and evaluated by BrdU/7AAD staining (FIG. 3D).

[4] = system: MDS patient marrow cells; assay: Colony formation in methylcellulose, primary MDS marrow cells; conditions: continuously treated or briefly exposed
Text: We evaluated marrow cells from 7 MDS and 3 AML patient samples with various cytogenetic features to determine whether IRAK1 inhibition is also effective in primary patient cells (Table S1). […] Since MDS and AML stem/progenitor cells are clonal and the disease-propagating cells form colonies in methylcellulose, we also evaluated the effects of IRAK-Inh on colony formation.

[5] = system: MDS/AML cell lines; assay: Colony formation in methylcellulose, MDS/AML cell lines; format: cell-based, human
Procedure: The effect of IRAK-Inh on leukemic progenitor function was evaluated in methylcellulose containing IRAK-Inh. […] As an alternative approach, MDS/AML cells were pre-treated with IRAK-Inh for 24 hours and then plated in methylcellulose.

[6] = molecular target: pp60^Src (Homo sapiens, UniProt P12931); conditions: read-out: IC50 pp60Src; Powers et al., 2006; cited from earlier work
[7] = system: NF-κB (RelA/p65); conditions: MDS/AML cell lines (THP1, HL60), 10 μM, 24 hrs
Procedure: (§1) Annexin V analysis was carried out as previously described (Fang et al., 2012). Cells were stained after either drug treatment or lentiviral transduction with Annexin V (eBioscience) and propidium iodide (Sigma-Aldrich), or 7AAD (eBioscience) according to the manufacturer's instructions. Analysis was performed using BD FACSCalibur or FACSCanto flow cytometer with either CellQuest or Diva software. For in vitro growth assays, cell expansion in liquid culture was determined based on trypan blue exclusion using an automated cell counter (BioRad TC10). For experiments beyond 48 hrs, cells were replenished with fresh media and drug every second day. For primary patient marrow cells, cell were treated with a single inhibitor dose and counted 24 and 48 hours later. NF-κB DNA-binding assay Nuclear lysates were isolated from treated cells as previously described (Starczynowski et al., 2011). NF-κB (p65) DNA binding was measured using an ELISA-based assay according to the manufacturer's recommendations (KHO0371, Invitrogen)

[8] = system: MDS patient marrow cells; conditions: 48 hrs
Procedure: as §1

[9] = system: primary AML marrow cells; assay: Growth/viability of primary AML marrow cells; format: cell-based, human
Text: AML patient samples were acquired following informed consent and under the direction of IRB approved protocols.

[10] = system: MDSL cells; assay: MDSL xenograft, in vivo i.p. delivery after engraftment, NSG mice
Procedure: (§2) Xenograftment of NOD/SCID-IL2Rγ(NSG) and NSG-hSCF/hGM-CSF/hIL3 (NSGS) MDSL cells (1×10^6-5×10^6) were injected into the tail veins of 8-week old sublethally irradiated ([…]) NSG or NSG animals engineered to express human SCF, GM-CSF, and IL3 (NSGS) as previously described (Wunderlich et al., 2010). Mice were monitored by performing complete blood counts (Drew Hemavet 950FS). Following red cell lysis, human MDSL cells were identified by hCD45-FITC staining. In vivo delivery of IRAK-Inh approach is adapted from previous reports (Yang et al., 2011): IRAK-Inh was diluted in DMSO (5 mM) and further dissolved in sterile phosphate buffered saline (PBS; pH 7.2). Animals were injected i.p. with 2.12 mg/kg IRAK-Inh 3× weekly.
To determine whether IRAK-Inh can delay human MDS-like disease in vivo, MDSL were pre-treated with IRAK-Inh (10 μM) for 24 hrs in vitro and subsequently injected intravenously (i.v.) into NSG (5×10^6 cells) and NSGS (1×10^6 cells) recipient mice (FIG. 4A). This approach permitted us to evaluate the cell autonomous effect of IRAK-Inh on MDS cell viability and engraftment without altering endogenous IRAK1 function in the mouse. […] In addition, the human MDSL graft was reduced from 8% to 2% (FIG. 4D). Morphological assessment confirmed normal RBC and reduced MDS grafts in the peripheral blood and marrow of mice transplanted with IRAK-Inh-treated MDSL cells (FIG. 4E). […]

[11] = system: MDSL cells; assay: MDSL xenograft, cells pre-treated in vitro, NSG mice; format: in vivo
Procedure: as §2
To determine whether IRAK-Inh can delay human MDS-like disease in vivo, MDSL were pre-treated with IRAK-Inh (10 μM) for 24 hrs in vitro and subsequently injected intravenously (i.v.) into NSG (5×10^6 cells) and NSGS (1×10^6 cells) recipient mice (FIG. 4A). This approach permitted us to evaluate the cell autonomous effect of IRAK-Inh on MDS cell viability and engraftment without altering endogenous IRAK1 function in the mouse.

Lck, sequence (P06239 whole entry, species assumed): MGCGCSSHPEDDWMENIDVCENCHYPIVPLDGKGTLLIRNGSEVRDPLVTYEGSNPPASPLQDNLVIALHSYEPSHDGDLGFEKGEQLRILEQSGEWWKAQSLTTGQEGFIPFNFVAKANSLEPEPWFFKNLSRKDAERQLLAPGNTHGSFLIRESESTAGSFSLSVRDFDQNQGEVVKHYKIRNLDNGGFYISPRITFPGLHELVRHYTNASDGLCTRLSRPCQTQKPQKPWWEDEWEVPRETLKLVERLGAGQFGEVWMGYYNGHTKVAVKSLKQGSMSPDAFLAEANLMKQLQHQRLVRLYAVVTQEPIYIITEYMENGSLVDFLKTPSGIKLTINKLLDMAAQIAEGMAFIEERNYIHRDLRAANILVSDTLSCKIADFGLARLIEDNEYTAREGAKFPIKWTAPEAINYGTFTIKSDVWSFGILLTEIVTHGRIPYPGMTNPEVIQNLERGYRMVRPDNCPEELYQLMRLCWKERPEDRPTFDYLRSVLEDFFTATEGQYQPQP
pp60^Src, sequence (P12931 whole entry): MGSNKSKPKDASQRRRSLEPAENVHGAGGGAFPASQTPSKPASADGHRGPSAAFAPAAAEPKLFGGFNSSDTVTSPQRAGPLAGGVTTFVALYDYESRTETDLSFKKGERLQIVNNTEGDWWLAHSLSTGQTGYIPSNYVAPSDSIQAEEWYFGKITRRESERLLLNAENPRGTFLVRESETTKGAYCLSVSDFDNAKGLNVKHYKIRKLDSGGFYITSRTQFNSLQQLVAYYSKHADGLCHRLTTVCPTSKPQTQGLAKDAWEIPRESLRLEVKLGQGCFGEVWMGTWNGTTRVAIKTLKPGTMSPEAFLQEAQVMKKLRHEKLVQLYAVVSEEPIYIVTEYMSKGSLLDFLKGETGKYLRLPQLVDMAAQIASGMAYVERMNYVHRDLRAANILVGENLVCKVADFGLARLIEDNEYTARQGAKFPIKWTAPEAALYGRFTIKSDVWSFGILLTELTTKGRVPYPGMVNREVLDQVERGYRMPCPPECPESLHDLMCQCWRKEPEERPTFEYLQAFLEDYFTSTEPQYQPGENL
IRAK4, sequence (Q9NWZ3 whole entry, species assumed): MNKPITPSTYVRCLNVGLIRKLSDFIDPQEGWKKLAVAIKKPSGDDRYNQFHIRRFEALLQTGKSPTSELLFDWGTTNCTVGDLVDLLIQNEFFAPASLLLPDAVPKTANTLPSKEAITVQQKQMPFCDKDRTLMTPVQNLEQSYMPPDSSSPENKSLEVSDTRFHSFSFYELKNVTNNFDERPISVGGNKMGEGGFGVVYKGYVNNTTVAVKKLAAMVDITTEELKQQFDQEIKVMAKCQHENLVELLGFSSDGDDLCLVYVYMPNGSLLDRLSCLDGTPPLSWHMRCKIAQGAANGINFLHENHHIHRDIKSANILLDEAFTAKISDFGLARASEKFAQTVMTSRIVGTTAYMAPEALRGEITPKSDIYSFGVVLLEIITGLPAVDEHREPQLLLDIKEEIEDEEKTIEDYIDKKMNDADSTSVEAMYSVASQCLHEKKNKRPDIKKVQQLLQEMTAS

## O=C(Nc1nc2ccccc2n1CCN1CCOCC1)c1cccc([N+](=O)[O-])c1 [IRAK-Inh, N-(2-morpholinylethyl)-2-(3-nitrobenzoylamido)-benzimidazole]
[1]
  IC50: 200 nM
[2]
  IC50: > 10 µM
[3]
  proportion in G0/G1: 62.7%±1.1
  proportion of sub-G0 cells: 5.4%±0.3
  viable cells in S phase: 4.3%±0.4
[4]
  colony formation of MDS marrow cells: significantly fewer colonies
[5]; all MDS/AML cells, continuous treatment
  colony formation, methylcellulose containing inhibitor: significantly fewer colonies
[5]; pre-treated 24 hr, 10 μM, then plated
  colony formation after transient exposure: significantly fewer colonies
[6]
  IC50: > 10 µM
[7]
  DNA bound and active RelA/p65 decreased by: ~50%
[8]
  expansion of MDS marrow cells: failed to expand
[8]; except for MDS-07
  apoptotic cells in MDS marrow cells: increased levels of apoptotic cells
[9]
  growth of AML marrow cells: continued to grow similar to control-treated cells
  viability of primary AML marrow cells: only modestly reduced
[10]; 2.12 mg/kg i.p. 3×/week from day 6
  HCT and Hb levels: maintained HCT and Hb levels
[10]; within ~7 days of receiving 2.12 mg/kg i.p. 3×/week
  human graft in peripheral blood (hCD45): reduced human graft in the peripheral blood
[11]; MDSL pre-treated 10 μM 24 hrs, 5×10^6 cells i.v., control 68 days
  median survival: 80 days
[11]; peripheral blood, 28 days post-transplant, control 8%
  human MDSL graft: 2%
